biological target: Mothers against decapentaplegic homolog 3 (Homo sapiens, UniProt P84022); assay: inhibitors of SMAD-driven TGF-beta signaling – dose response (AID 715)
Sequence (P84022 whole entry): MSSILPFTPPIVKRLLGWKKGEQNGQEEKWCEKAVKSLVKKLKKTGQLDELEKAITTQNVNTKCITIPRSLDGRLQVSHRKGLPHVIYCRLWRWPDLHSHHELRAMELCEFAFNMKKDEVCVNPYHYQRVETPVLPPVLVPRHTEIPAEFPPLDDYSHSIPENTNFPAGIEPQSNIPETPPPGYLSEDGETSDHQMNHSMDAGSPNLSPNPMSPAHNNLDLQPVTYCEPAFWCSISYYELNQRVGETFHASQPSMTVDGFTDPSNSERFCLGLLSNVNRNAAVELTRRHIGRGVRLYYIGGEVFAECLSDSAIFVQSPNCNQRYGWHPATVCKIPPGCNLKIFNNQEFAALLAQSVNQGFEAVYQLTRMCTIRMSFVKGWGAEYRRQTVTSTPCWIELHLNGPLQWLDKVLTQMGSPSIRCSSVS

Q: How did the IC50 turn out when O=C1C=CC(CN=Nc2nccs2)C=C1[N+](=O)[O-] (centres undefined) [(4Z)-2-nitro-4-[(2-thiazolylhydrazo)methylidene]-1-cyclohexa-2,5-dienone] was run?
A: 30.9 µM

Q: Which IC50 does the source give for CC1(C)CC(=O)C(C2(O)C(=O)NC(=O)NC2=O)C(=O)C1 [5-(4,4-dimethyl-2-oxidanyl-6-oxidanylidene-cyclohexen-1-yl)-5-oxidanyl-1,3-diazinane-2,4,6-trione] here?
A: 2.3 µM

Q: How did the IC50 turn out when Cc1ccc(-[n+]2c(O)csc2[C-](C(Cl)=C(Cl)Cl)[N+](=O)[O-])cc1 [(2E)-3-(4-methylphenyl)-2-[2,3,3-tris(chloranyl)-1-nitro-prop-2-enylidene]-1,3-thiazolidin-4-one] was run?
A: 27.7 µM

Q: Which IC50 does the source give for CCN(CC)P(=O)(NC(=O)C(Cl)(Cl)Cl)N(CC)CC [MLS000564159] here?
A: 14.1 µM

— BindingDB's records for doi:10.7270/Q2G44NQ4 (Emory University, 2007)
